Ends that are not written are not given here.
Tests used:
[1] = tested on: hemostatic plug formation; experiment: In vivo rabbit superior mesenteric artery perfusion, bleeding time; conditions: FIG. 11
Experimental: This Example illustrates an in vivo model of mesentric artery perfusion in a rabbit. The experimental model employed involved anesthesized white New Zealand rabbits, weighing about 2.0 kg, and fed standard diet. The right femoral artery was canulated for blood pressure measurement and blood sampling. A midline abdominal incision was made to exteriorize the small intestine, the mesentery was draped over a microscope table, and superfused continuously with saline at 37° C. […] Small arteries of 100-200 μm external diameter were cut one third across with a surgical blade at the junction of the mesentery with the intestine. The time in seconds was determined from incision until the bleeding was arrested by a spontaneously formed hemostatic plug. Infusions of selected agents tested for their effects on platelet activation were through the mesenteric cannula with a constant volume Harvard pump at a flow rate of 0.11 ml/min. Three animals were used for each dose unless otherwise indicated. Blood pressure, hematocrit, and platelet count were measured prior to and after bleeding time determinations.

[2] = target: T1, ADP-modified human platelets (von Willebrand factor binding site) (Homo sapiens, UniProt P05106+P08514); experiment: Inhibition of 125I-labelled von Willebrand factor binding to ADP-treated human platelets; conditions: 10^8 human platelets/0.55 ml treated with 5 mM of ADP, 14 μg 125I-von Willebrand factor, FIG. 8
T1 construct: 10^8 human platelets/0.55 ml treated with 5 mM of ADP; endogenous in cells; host or cells: human platelets treated with ADP
Experimental: This Example illustrates that a peptide can be used to inhibit binding of von Willebrand factor to ADP-treated human platelets. FIG. 8 illustrates the level of inhibition of ^125 I-labelled von Willebrand factor or fibrinogen binding to ADP-modified human platelets by incubation with a synthetic dodecapeptide

[3] = tested on: ADP-modified human platelet receptor site for fibrinogen; experiment: Inhibition of 125I-fibrinogen binding to ADP-treated human platelets; conditions: 10^8 human platelets/0.55 ml treated with 5 mM of ADP, FIG. 8
Experimental: FIG. 3 is a graph showing that the inhibitory effect of the same conjugate is concentration dependent. In this experiment, human platelets were treated with ADP and a variety of concentrations of the conjugate were added to affect inhibition of ^125 I-fibrinogen binding to the platelets. As the concentration of the conjugate increases, inhibition of binding goes from 0 to almost 100%, showing the effectiveness of the conjugate.

[4] = target: T2, ristocetin-modified human platelets (von Willebrand factor binding site) (Homo sapiens, UniProt P07359); experiment: Inhibition of 125I-labelled von Willebrand factor binding to ristocetin-treated human platelets; conditions: human platelets treated with 0.6 mg/ml ristocetin, FIG. 8
T2 construct: von Willebrand factor to human platelets treated with 0.6 mg/ml ristocetin; endogenous in cells; host or cells: human platelets treated with ristocetin

[5] = tested on: ADP-treated human platelets; experiment: Aggregation of ADP-treated human platelets washed free of fibrinogen, by conjugates (percent transmission); type: cell-based; conditions: FIG. 6 curves b and c
Description: FIG. 5 illustrates the effectiveness of the divalent conjugate on promoting this inhibition reaction. Human platelets were washed free of fibrinogen and other binding proteins and then treated with ADP. […] The lower curve on FIG. 5 is a control of the identical conjugate with a peptide bound to the human serum albumin that is […] to the receptor site.
This Example illustrates that a polyvalent conjugate can also be manufactured and used in an aggregation reaction. […] Multiple copies of a different peptide, residues 397-411 of the gamma chain of fibrinogen bound to a cysteine residue were conjugated to a human serum albumin backbone. Curve a on FIG. 6 illustrates the aggregation of ADP-treated human platelets by this polyvalent conjugate. […] Curves b and c on FIG. 6 are controls illustrating the effectiveness of the conjugate as an artificial fibrinogen. In Curve b, the "model molecule" was first mixed with Fab fragments of rabbit antibody which had been made against the terminal portion of the gamma chain of human fibrinogen. […] This is evident from the almost flat response shown as Curve b on FIG. 6.
The alternate control, inhibiting the artificial fibrinogen reaction using the peptides themselves, is shown in Curve c. In this reaction, the platelets were mixed with unconjugated peptides and then the conjugate was used in attempt to aggregate the platelets.

T2 sequence (P07359 17-652): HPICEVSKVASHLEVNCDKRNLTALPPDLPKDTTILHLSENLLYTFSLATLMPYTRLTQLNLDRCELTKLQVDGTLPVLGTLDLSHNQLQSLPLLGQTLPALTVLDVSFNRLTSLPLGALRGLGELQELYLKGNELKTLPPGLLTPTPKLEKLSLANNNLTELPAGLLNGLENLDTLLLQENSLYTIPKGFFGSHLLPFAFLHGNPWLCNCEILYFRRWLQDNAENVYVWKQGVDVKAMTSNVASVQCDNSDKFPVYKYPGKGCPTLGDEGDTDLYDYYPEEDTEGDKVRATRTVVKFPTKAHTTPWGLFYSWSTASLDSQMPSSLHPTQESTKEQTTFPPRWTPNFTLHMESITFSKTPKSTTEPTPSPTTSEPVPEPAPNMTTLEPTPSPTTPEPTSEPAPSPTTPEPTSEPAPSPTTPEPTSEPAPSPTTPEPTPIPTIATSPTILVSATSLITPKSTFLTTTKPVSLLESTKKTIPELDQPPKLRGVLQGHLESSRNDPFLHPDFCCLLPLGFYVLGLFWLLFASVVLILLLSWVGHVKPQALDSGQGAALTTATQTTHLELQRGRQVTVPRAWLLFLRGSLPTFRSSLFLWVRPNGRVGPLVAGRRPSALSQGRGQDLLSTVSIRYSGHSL
T2 sequence (P13224 26-206 partner): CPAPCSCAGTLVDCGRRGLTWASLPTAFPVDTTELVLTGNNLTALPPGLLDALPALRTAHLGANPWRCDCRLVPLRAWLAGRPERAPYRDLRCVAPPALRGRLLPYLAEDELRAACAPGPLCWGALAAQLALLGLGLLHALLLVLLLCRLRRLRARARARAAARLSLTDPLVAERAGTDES
T2 sequence (P14770 17-177 partner): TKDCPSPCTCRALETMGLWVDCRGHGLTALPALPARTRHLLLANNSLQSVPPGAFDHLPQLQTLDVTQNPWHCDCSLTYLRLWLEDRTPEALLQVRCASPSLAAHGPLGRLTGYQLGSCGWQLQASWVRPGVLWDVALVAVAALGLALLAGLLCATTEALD
T2 sequence (P40197 17-560 partner): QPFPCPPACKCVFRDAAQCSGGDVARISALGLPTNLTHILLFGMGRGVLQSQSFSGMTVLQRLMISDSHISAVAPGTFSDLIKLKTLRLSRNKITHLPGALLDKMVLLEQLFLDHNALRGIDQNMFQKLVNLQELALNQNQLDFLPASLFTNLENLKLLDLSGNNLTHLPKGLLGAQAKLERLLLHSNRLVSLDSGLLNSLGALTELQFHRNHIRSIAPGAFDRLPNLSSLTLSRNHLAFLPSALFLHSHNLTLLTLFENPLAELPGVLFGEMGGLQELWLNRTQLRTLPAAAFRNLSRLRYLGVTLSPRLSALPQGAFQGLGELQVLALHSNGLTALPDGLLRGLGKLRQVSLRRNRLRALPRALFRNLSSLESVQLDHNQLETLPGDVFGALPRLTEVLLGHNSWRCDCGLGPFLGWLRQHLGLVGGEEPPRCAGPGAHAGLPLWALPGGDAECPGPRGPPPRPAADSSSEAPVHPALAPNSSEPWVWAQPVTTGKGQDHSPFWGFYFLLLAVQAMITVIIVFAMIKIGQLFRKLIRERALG
T1 sequence (P08514 32-887 limits assumed): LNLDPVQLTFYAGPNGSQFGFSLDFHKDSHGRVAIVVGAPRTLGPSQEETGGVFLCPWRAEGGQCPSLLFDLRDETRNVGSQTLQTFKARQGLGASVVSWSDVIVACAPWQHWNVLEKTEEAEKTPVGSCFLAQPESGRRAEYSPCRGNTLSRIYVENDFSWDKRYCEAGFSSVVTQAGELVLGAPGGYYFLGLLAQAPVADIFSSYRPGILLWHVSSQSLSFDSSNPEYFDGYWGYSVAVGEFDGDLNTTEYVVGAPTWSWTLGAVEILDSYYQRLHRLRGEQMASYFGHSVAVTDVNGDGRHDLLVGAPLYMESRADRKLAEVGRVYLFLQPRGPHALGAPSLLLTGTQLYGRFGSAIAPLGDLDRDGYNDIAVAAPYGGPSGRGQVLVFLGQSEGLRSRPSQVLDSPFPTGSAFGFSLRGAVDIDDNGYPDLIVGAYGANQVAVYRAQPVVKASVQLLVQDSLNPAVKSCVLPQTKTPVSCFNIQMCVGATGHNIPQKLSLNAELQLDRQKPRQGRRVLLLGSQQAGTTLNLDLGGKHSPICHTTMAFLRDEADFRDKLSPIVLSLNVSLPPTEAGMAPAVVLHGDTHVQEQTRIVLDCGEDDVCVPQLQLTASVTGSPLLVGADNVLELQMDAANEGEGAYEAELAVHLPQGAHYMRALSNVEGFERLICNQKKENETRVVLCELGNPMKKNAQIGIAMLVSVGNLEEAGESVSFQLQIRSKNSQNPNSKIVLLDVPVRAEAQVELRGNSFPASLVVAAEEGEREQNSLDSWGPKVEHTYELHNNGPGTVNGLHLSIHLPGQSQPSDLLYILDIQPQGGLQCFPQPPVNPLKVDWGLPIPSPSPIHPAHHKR
T1 sequence (P08514 891-1039 partner limits assumed): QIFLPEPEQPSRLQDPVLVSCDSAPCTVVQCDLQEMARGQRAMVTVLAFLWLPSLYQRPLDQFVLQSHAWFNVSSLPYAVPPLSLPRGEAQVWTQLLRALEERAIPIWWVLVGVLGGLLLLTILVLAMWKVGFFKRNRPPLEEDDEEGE
T1 sequence (P05106 27-788): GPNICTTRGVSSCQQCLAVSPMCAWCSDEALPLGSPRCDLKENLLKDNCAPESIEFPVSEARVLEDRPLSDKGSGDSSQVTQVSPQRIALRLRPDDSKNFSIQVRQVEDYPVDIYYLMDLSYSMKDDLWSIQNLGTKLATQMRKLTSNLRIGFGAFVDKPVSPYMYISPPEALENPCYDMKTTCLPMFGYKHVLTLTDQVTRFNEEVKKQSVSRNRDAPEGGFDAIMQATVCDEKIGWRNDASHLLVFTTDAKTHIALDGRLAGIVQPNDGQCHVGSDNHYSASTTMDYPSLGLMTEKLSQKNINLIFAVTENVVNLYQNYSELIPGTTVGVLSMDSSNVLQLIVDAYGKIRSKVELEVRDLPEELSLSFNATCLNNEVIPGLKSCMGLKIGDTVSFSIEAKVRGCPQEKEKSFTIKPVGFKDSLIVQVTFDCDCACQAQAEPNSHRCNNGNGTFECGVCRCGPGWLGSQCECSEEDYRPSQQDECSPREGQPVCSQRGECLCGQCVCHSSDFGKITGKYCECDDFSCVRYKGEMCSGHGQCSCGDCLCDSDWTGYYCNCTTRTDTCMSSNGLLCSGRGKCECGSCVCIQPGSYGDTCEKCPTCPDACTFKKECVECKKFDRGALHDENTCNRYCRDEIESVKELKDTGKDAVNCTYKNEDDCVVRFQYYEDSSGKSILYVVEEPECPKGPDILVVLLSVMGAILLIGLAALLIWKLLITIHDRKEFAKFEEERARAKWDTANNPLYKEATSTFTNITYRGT

HHLGGAKQAGDV [inhibitory peptide]
bleeding time relative to its original time (diluent infusion) ([1]; infusion through the mesenteric cannula): more than double its original time | time to resume original bleeding time after peptide infusion is replaced by diluent ([1]; said to show clearance of the peptide): approximately 20 minutes

HHLGGAKQAGDV [dodecapeptide, H2 N-His-His-Leu-Gly-Gly-Ala-Lys-Gln-Ala-Gly-Asp-Val-C OOH]
inhibition of 125I-labelled von Willebrand factor binding [2]: substantial binding inhibition | inhibition of 125I-labelled fibrinogen binding [3]: substantial binding inhibition | inhibition of 125I-labelled von Willebrand factor binding [4]: does not inhibit

unconjugated peptides: the peptides of the polyvalent conjugate themselves, unconjugated (gamma chain residues 397-411 with cysteine)
inhibition of platelet aggregation induced by the polyvalent conjugate (artificial fibrinogen) [5]: aggregation reaction by the artificial fibrinogen conjugate is inhibited
